One data set deals with E. coli ATCC 25922. Description: MIC in the presence of 50% human serum. The data set is classed as cell-based. To be noted: 50% heat inactivated human male AB serum and 50% MHB-II; crude measure of protein binding/interference; triplicate. The protocol: The minimum inhibitory concentration (MIC) was determined as previously described ([68]), with minor modifications. Briefly, exponentially growing cultures in MHB-II (37°C) were diluted to an OD600 = 0.002, approximately 1×10^6 colony forming units (CFU) per ml. 100 µl of bacterial suspension was added to polypropylene microtiter plates containing 100 µl of Colistin or ChIP dilutions. Giving a final bacterial inoculum of ∼ 5×10^5 CFU/ml. Colistin sulfate salt (Sigma-Aldrich) and ChIP (Genscript >95% purity) was dissolved in H2O. ChIP MIC in serum was determined in the presence of 50% (heat inactivated) human serum (Sigma) and 50% MHB-II. All experiments were performed in triplicate.

A further data set has as its system E. coli and A. baumannii. Nature of the data set: Mouse peritonitis model, overall statement. Type of data set: in vivo. To be noted: after two-dose treatment. The protocol:
Outbred female NMRI mice (NMRI; weight 26–30 g; Taconic, Denmark) were used throughout the study, as previously described ([69], [70]). […] Colistin is recommended at a dose of 5-10 mg/kg, according to the European Medicines Agency (EMA) ([71]). The animals were kept in Macrolon type III cages in groups of six and allowed free access to feed and water. Experiments were initiated after an acclimatization period of 7 days. Inoculation (bacterial infection) was performed by intraperitoneal (IP) injection of 0.5 ml bacterial suspension containing 2×10^7 CFU/ml and 5% (wt/vol) mucin (Sigma-Aldrich). During experiments, groups of eight mice per cage constituting one experimental unit were randomly assigned to treatment (5 mg/kg ChIP and 10 mg/kg ChIP or colistin 10 mg/kg and 24 mg/kg) or no treatment (vehicle). […] Quantification of bacterial load was performed by spot plating of blood and peritoneal fluid samples from the mice. […] Bacterial counts were recorded after overnight incubation at 37 °C in ambient air. […] The clinical condition of the mice was determined using a self-developed clinical score. For this score, mouse behavior and appearance were observed and evaluated for the parameters piloerection, attitude, locomotion, breathing and curiosity and awarded a score from 0 to 5 by a blinded observer. […] All mice were recorded for score 2.

Data set [1] deals with E. coli ML-35p inner membrane. Description: Permeabilization assay (ONPG / β-galactosidase). Type of data set: cell-based. To be noted: ChIP 4, 12 and 20 µg/ml for 20, 40 or 60 minutes; chloramphenicol 200 µg/ml pretreated; level higher than toluene or colistin 2 µg/ml. The protocol:
Exponentially growing cells of E. coli ML35 (LacI^- LacY^- LacZ^+) were treated with chloramphenicol (200 µg/ml) to stop protein synthesis. Chloramphenicol treated samples were incubated with ChIP (4, 12 and 20 µg/ml) and colistin (2 µg/ml) for 20, 40 or 60 minutes (12 samples total). 200 µL peptide treated cells were added to 1 ml Z-buffer (0.06M Na2HPO4, 0.04M NaH2PO4, 0.01M KCL, 0.001M MgSO4 and pH = 7) containing 1 mg/ml Ortho-Nitrophenyl-β-galactoside (ONPG). Samples were left at room temperature 15 minutes before stopping color development by addition of 0.5 ml Na2CO3 (1M). Toluene treated cells were included as a control for permeabilized cells. β-galactosidase activity was detected by OD420 measurements.

For the next data set, the system named is E. coli ATCC25922. Nature of the data set: Live/Dead staining and phase contrast microscopy. The data set is classed as cell-based. To be noted: 5xMIC, first 30 min of treatment, OD600 = 0.1. As for the experimental part: Exponentially growing E. coli ATCC25922 were treated for 30 min with either colistin (5xMIC) or ChIP (5xMIC) at OD600 = 0.1. An untreated culture was used as a control. 20 ml of treated or untreated culture was concentrated by centrifugation at 5,000 × g for 10 minutes, washed and re-suspended in 10 ml 0.9% NaCl. All samples were incubated at room temperature for 1 hour, mixing every 15 minutes, before washing twice with 10 ml 0.9% NaCl. After washing, the samples were re-suspended in 5 ml 0.9% NaCl, except for ChIP treated samples that were suspended in 1 ml 0.9% NaCl. Sample staining was performed according to the manufacturers instruction (LIVE/DEAD(tm) BacLight(tm) Bacterial Viability Kit, for microscopy & quantitative assays), and incubated for 15 minutes in the dark. 5 μl of the bacterial suspension was placed on an agar pad and analyzed by fluorescence microscopy using an AxioImager Z1 microscope (Carl Zeiss MicroImaging, Inc), with a × 100 objective and a Hamamatsu ORCA-ER C4742-80-12AG camera.

Data set [2] has as its system Klebsiella pneumoniae ATCC 13883. Conditions: ATCC 13883, reference strain; MHB-II, 37°C, ~5×10^5 CFU/ml, triplicate.
The next data set deals with P. aeruginosa B3-CFI. Conditions: clinical isolate, colistin resistant, MHB-II, 37°C, ~5×10^5 CFU/ml, triplicate.
The test system of the next data set is HeLa cells. To be noted: ChIP concentrations of 40 µg/ml and above, 24 hours, DMEM without serum, Trypan Blue, triplicate.
The conditions of data set [3]: cited from earlier work.

In brackets after ≈: the same amount, converted by molar mass.

Procedure for HeLa cells: HeLa cells were cultured in Dulbecco’s Modified Eagles Medium (DMEM) (Sigma) supplemented with 10% fetal calf serum (Sigma) and 2 mM glutamine at 37°C in a humid incubator with 5% CO2. Cell survival after 24 hours with various amounts of ChIP in DMEM without serum was determined by staining with Trypan Blue Stain (Gibco/Life Technologies). Experiments were performed in triplicate.

The term MIC denotes the lowest concentration found to suppress growth. Lower therefore signals greater potency. On to `CC[C@@H](C)[C@@H](NC(=O)[C@@H](CCCCN)NC(=O)[C@@H](CCCCN)NC(=O)[C@@H](Cc1ccccc1)NC(=O)[C@@H](CC(C)C)NC(=O)[C@@H](CCCCN)NC(=O)[C@H](N)CCCCN)C(=O)N[C@H](CC(C)C)C(=O)N[C@H](CCCNC(=N)N)C(=O)N[C@H](Cc1ccc(O)cc1)C(=O)N[C@H](CC(C)C)C(N)=O` [ChIP], for which the “MIC in MHB-II + Human serum (50:50) versus MHB-II” value with E. coli ATCC 25922 is given as “did not change the MIC”. In addition, in the data set with E. coli and A. baumannii, the bacterial reduction intraperitoneal result was “up to 5 logs”. The “β-galactosidase activity (ONPG, OD420) of treated cells” value in data set [1] is given as “increased in a dose dependent manner”. For the same compound, in the data set on E. coli ATCC25922, the “viability and lysis (SYTO9 / propidium iodide, phase contrast)” value was “loss of viability, but without lysis”. Also, the figures for the MIC (in data set [2]; in the data set with P. aeruginosa B3-CFI) were 4 µg/mL (≈ 2.76 µM) and 8 µg/mL (≈ 5.52 µM), respectively. Besides, the HeLa cell survival result with HeLa cells is listed as “greatly reduced survival”. Besides, in data set [3], the hemolytic activity entry is “low hemolytic activity”.
